According to PMC3516848 (Journal of medicinal chemistry, 2011):

Biological target: T1, recombinant PfA-M1 (Plasmodium falciparum, UniProt O96935)
T1 sequence (O96935 1-1085): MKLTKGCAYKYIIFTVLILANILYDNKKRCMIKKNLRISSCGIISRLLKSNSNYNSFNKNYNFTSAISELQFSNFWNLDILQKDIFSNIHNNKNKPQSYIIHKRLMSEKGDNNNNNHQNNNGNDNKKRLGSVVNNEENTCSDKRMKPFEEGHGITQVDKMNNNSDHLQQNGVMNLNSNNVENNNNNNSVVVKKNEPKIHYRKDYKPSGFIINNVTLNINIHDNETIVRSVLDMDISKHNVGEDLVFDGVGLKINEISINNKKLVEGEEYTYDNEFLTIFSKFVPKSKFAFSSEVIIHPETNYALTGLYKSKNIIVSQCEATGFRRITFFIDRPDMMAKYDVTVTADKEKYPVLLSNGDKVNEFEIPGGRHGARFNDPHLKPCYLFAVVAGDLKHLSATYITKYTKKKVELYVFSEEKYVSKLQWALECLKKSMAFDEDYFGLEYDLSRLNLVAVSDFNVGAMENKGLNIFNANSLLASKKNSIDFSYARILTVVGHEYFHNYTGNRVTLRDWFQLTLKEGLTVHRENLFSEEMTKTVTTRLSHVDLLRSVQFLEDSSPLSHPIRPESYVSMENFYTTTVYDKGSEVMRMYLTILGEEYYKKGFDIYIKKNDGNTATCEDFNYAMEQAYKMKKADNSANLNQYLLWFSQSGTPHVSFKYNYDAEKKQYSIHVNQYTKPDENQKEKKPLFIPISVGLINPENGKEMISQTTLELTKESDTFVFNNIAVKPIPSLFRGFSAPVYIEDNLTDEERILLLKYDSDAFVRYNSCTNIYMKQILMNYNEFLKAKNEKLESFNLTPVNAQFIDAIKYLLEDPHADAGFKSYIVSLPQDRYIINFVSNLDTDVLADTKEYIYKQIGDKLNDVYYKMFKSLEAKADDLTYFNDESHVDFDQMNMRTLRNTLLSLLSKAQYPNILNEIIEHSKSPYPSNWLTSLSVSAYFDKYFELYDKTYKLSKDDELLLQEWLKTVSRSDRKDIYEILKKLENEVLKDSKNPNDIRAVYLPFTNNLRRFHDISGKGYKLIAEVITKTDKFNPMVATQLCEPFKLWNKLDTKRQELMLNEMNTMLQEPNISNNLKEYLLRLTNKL
Format: biochemical
Settings: read-out: Ki (nM) PfA-M1; P1' derivatives; assays at 8 inhibitor concentrations spanning 0.3 30 μM

Row | Ki | SMILES
1 | > 30000 nM | N[C@H](Cc1ccccc1)[C@H](O)C(=O)N[C@@H](Cc1ccc(-c2ccccc2)cc1)C(=O)O [compound 6, PheBipOH]
2 | > 30000 nM | N[C@H](Cc1ccccc1)[C@H](O)C(=O)N[C@@H](Cc1ccc2ccccc2c1)C(=O)O [compound 5, PheNaphOH]
